Experimental data: US20210386674A1, “MODIFIED RELEASE TABLET FORMULATIONS CONTAINING PHOSPHODIESTERASE INHIBITOR” (UNION therapeutics A/S, priority 2019, published 2021)

Tests used:
[1] = Solubility of Compound A; assay type: physicochemical
[2] = Oral absorption window in the gastrointestinal tract; assay type: in vivo; conditions: given orally; upper part of the gastrointestinal tract

- Solubility [1]: poorly soluble
- Absorption window [2]: very narrow absorption window
SMILES: O=C(Cc1c(Cl)c[n+]([O-])cc1Cl)c1ccc(OC(F)F)c2c1OC1(CCS(=O)(=O)CC1)O2 [Compound A, 2-(3,5-Dichloro-1-oxido-pyridine-4-yl)-1-(7-difluoro-methoxy-2′,3′,5′,6-tetrahydro-spiro[1,3-benzodioxole-2,4-(4H)-thiopyran-1′,1′-dioxide]-4-yl)ethanone]
